Data taken from PMC6198970, “Safety, efficacy, and dose response of the maturation inhibitor GSK3532795 (formerly known as BMS-955176) plus tenofovir/emtricitabine once daily in treatment-naive HIV-1-infected adults: Week 24 primary analysis from a randomized Phase IIb trial” (PLoS ONE, 2018).

What was measured:
Type in all cases: in vivo, HIV-1-infected adults
HIV-1 [1] = assay: Phase IIb study 205891: plasma HIV-1 RNA response at Week 24 (FDA snapshot, observed); settings: Week 24, mITT; GSK3532795: range across 60, 120, 180 mg arms; EFV 600 mg; each + TDF/FTC
Experimental: 205891 was a Phase IIb, randomized, active-controlled, double-blind trial performed at 58 sites in 12 countries across South America, North America, South Africa, and Europe. Participants were randomized 1:1:1:1 to one of four treatment arms; GSK3532795 at doses of 60 mg, 120 mg or 180 mg once daily (QD), and one reference arm with EFV at a dose of 600 mg QD, each given in combination with TDF/FTC 300/200 mg QD.
Participants attended study visits at screening, on Day 1, and once every 4 weeks from Week 4 to Week 24 (telephonic visits were conducted at Week 20). Participants were expected to continue treatment, then, through Week 96, with visit intervals every 8–12 weeks. A post-dose safety follow-up visit was also conducted 12 weeks after treatment discontinuation. Plasma HIV-1 RNA levels were quantified by the Abbott RealTime HIV-1 assay.
The FDA-defined snapshot algorithm was used for primary endpoint efficacy assessment, using the last plasma HIV-1 RNA value in the pre-defined Week 24 visit window (± 6 weeks) to determine response. The modified intent-to-treat (mITT) population consisted of participants who received at least one dose of GSK3532795 or EFV. […]

CD4+ T-cell count = assay: Change from baseline in CD4+ T-cell count; settings: EFV arm; Week 24
From the text: The primary endpoint was determination of the proportion of participants with plasma HIV-1 RNA <40 copies/mL at Week 24 after treatment with GSK3532795 or efavirenz (EFV). Secondary endpoints included mean changes from baseline in CD4+ T-cell count and mean changes in the percentage of CD4+ T-cell count over time. Secondary safety endpoints included frequency of adverse events (AEs), serious AEs (SAEs), and AEs leading to discontinuation through Week 24. Further secondary endpoints included emergence of drug resistance. Exploratory endpoints included assessment of the impact of Gag polymorphisms on the efficacy of GSK3532795. […] In addition, though Gag A364 is essentially invariant across genotypes, it was included in the primary endpoint analysis since emergent resistance to GSK3532795 (both in vitro and in Phase IIa studies) mapped, in part, to the A364V change. Thus, our analysis at the Week 24 primary endpoint was limited to these four positions. Pharmacokinetic (PK) analyses were performed to evaluate treatment exposure and assess the dose proportionality of GSK3532795 when co-administered with tenofovir disoproxil fumarate (TDF)/emtricitabine (FTC).

HIV-1 [2] = assay: Protocol-defined virologic failure and drug resistance testing (GenoSure MG, PhenoSense); settings: EFV arm; through Week 24
From the text: PDVF was defined as either: (1) confirmed HIV-1 RNA ≥40 copies/mL at any time after prior confirmed suppression to <40 copies/mL; or (2) a confirmed >1 log10 copies/mL above the nadir level. Genotypic information required for screening was generated using the GenoSure® MG assay; genotypic information and phenotypic observations during the treatment period were generated using the PhenoSense® combination resistance test.

[3] = Adverse events through Week 24
Experimental: (§1) Physical examinations, measurement of vital signs, and clinical laboratory evaluations were performed at Weeks 4, 8, 12, 16 and 24, and participants were closely monitored for AEs and SAEs throughout. AEs were classified according to MedDRA version 19.0. The severity and relationship to study drug was assessed by the local investigator.

[4] = Clinical laboratory evaluations
Experimental: as §1

[5] = GSK3532795: range across 60, 120, 180 mg arms, EFV 600 mg
[6] = GSK3532795 arms pooled, EFV 600 mg, abstract

O=C1Nc2ccc(Cl)cc2[C@@](C#CC2CC2)(C(F)(F)F)O1 [EFV, efavirenz, reference compound]
Participants achieving HIV-1 RNA <40 copies/mL (HIV-1 [1]): 77% | Mean change from baseline in CD4+ T-cell count (SD) (CD4+ T-cell count): 134.7 (SD 151.70) cells/μL | Rate of protocol-defined virologic failure (PDVF) (HIV-1 [2]): 2% (1/53) | Mean time to onset of first diarrhea event ([3]; EFV arm): 73.0 days | Mean duration of first diarrhea event ([3]; EFV arm (shortest)): 35.8 days | Incidence of dizziness relative to GSK3532795 ([3]; EFV arm vs GSK3532795 arms): ~10 fold | SAE considered related to study drug ([3]; GSK3532795 120 mg (no action taken), EFV (led to discontinuation)): increased hepatic enzyme | Grade 1–4-related abdominal pain [3, 5]: 0% | Grade 1–4-related diarrhea [3, 5]: 4% | Adverse events leading to discontinuation [3, 6]: 17% | Serious adverse events [3, 6]: 9% | Frequency of Grade 1–4-related AEs ([3]; GSK3532795 arms pooled, EFV 600 mg, through Week 24): 60% | Mean increase in total cholesterol ([4]; EFV arm, baseline to Week 24): 17.6 mg/dL | Mean increase in triglyceride levels ([4]; EFV arm, baseline to Week 24): 41.1 mg/dL | Hepatic event attributed to EFV ([4]; one participant, discontinued): several Grade 4 liver chemistry elevations
